# Measured values reported in patent US20080019916A1, “Methods and pharmaceuticals for treating muscle insulin resistance and related conditions” (University of Tasmania, priority 2001, published 2008).
# How the values were obtained:
# anaesthetised rats = test: hyperinsulinaemic euglycaemic clamp in anaesthetised rats with 1-MX metabolism, glucose uptake and haemodynamic monitoring; format: in vivo, rat
# Text: From present knowledge there would appear to be at least three possible mechanisms to account for insulin-mediated capillary recruitment in skeletal muscle. Firstly and most likely, insulin may act at insulin receptors on endothelial cells and an IRS-1/2, PI3-K pathway to activate eNOS to produce NO, which in turn permeates adjacent vascular smooth muscle cells to activate soluble guanylyl cyclase and lower the vascular tone of pre-capillary sphincters. In favour of this mechanism is the fact that this process is NO-dependent and is thus consistent with our preliminary data (FIG. 4). There is compelling evidence that insulin acts directly through insulin receptors on endothelial cells to control nutritive capillary flow in skin. Secondly, insulin may act at insulin receptors on the vascular smooth muscle cells (22) via IRS-1/2, PI3-K, NOS, cGMP, MBP (myosin bound phosphatase) sequence to cause vasorelaxation. This mechanism would be NO-dependent, free of endothelial cell involvement in signalling and attractive as TNFα is known to inhibit insulin signalling in vascular smooth muscle cells, although to date this has been restricted to the ERK1/2 activation step (23). This mechanism would also lead ultimately to the activation of guanylyl cyclase and the production of cyclic GMP. Thirdly, insulin may act at insulin receptors on skeletal muscle to activate glucose transport and metabolism by the IRS-1/2, PI3-K, GLUT4 pathway to produce a metabolite (e.g. adenosine) that permeates adjacent tissue to react with appropriate receptors on endothelial/vascular smooth muscle cells to result in vasorelaxation. […] FIG. 4. The effect of L-NAME on insulin mediated increases in hindleg glucose uptake (FIG. 4a) and 1-MX metabolism (FIG. 4b) was examined. Euglycemic clamp conditions (10 mU/min/kg) were conducted for 2 h. […] This latter mechanism would resemble that occurring in exercise where vasodilatory metabolite(s) are released locally by working muscle to facilitate local blood flow and would be inhibited by agents (e.g. glucosamine) that inhibit muscle glucose metabolism. All three mechanisms should be wortmannin sensitive as PI3-K is expected to be involved. A variant of this third mechanism is where a form of NOS is activated in skeletal muscle independently of glucose metabolism. NO could then permeate neighbouring tissue as above. The terminal half of this fourth possible mechanism should be simulated by AMPK activation with AICAR addition (24). Overall, given that the mechanism of capillary recruitment by insulin in rat muscle is NO-dependent (FIG. 4) and that NO acts by producing cyclic GMP, agents that might enhance capillary recruitment by insulin should be targeted to enhance insulin's production of NO or cyclic GMP. In principle, 1-methylxanthine (1-MX) is an exogenous substrate for an enzyme located predominantly in the nutritive capillary endothelial cells (much less so in the non-nutritive route and myocytes). Consequently, passage of blood borne 1-MX through the nutritive vascular route leads to its conversion to the product 1-methylurate (1-MU). Chromatographic analysis of arterial and venous samples for 1-MX and 1-MU together with the total blood flow rate over the muscle bed allows the calculation of 1-MX metabolism. A number of our studies using the perfused rat hindlimb have shown tight correlation between nutritive flow (or the proportion of nutritive/non-nutritive flow) and 1-MX metabolism (12,13). Assay of new drugs acting to increase capillary recruitment in the presence of endogenous or exogenous insulin. This is done in an optional two tier manner, firstly in anaesthetized rats using the hyperinsulinaemic euglycaemic clamp (14) and secondly, in human forearm using a localized hyperinsulinaemic euglycaemic clamp (17). The initial testing in rats is optional, but allows rapid identification of those agents likely to be effective in humans. […]
# [1] = system: skeletal muscle of the rat hindlimb; test: contrast enhanced ultrasound/microbubbles (CEU) measurement of capillary blood volume in rat hindlimb muscle; format: in vivo
# Text: A second method was devised using the latest technologies in ultrasound. The ultrasound method relies on the increased echogenicity of albumin microbubbles which are continuously infused intravenously during data acquisition. The acoustic signal that is generated from the microbubbles when exposed to ultrasound produces tissue opacification which is proportional to the number of microbubbles within the ultrasound beam. Using harmonic pulsing methods essentially all microbubbles within the ultrasound beam are destroyed in response to a single pulse of high-energy ultrasound and an image is obtained. In the time interval between subsequent pulsing episodes, microbubbles flowing into the tissue are replenished within the beam and affect the intensity of the signal from the next high energy pulse. Repeating this process with pulse delays between 50 msec and 20 sec, the beam will be fully replenished and further increases in the time between each pulsing interval will not produce a change to tissue opacification. The rate of microbubble reappearance within the ultrasound beam provides an indication of capillary velocity and the degree of tissue opacification provides a measurement of capillary blood volume (CBV). Images are background-subtracted from images from a pulsing interval of 1000 ms which represents the replenishment of arteries and arterioles thus providing a measurement of capillary flow. The plateau tissue opacification (measured as videointensity) is the determination of capillary blood volume. Using this approach, changes in capillary blood volume in response to insulin and exercise have recently been assessed in the skeletal muscle of the rat hindlimb in vivo and compared to data obtained using 1-MX metabolism (ref 16; FIG. 1). FIG. 1. Comparison of the effect of saline, insulin (3 mU/min/kg, euglycemic clamp×120 min) or muscle contraction (2 Hz, 1 ms duration, monophasic square waves×10 min) on capillary blood volume as measured by microbubble videointensity using contrast enhanced ultrasound (FIG. 1a) or the hindlimb extraction of 1-MX (FIG. 1b) measured under identical conditions. […] Exercise is regarded by most physiologists as a “bench-mark” stimulus for capillary recruitment. […] A particular advantage of the ultrasound method is that it is relatively non-invasive and is suitable for human use (17). This opens up possibilities for its use in diagnosis in terms of impaired capillary recruitment in response to insulin and the monitoring of outcomes from therapeutic interventions that might act by increasing capillary recruitment. The ultrasound method relies on the increased echogenicity of albumin microbubbles that are continuously infused intravenously during data acquisition. […]
# [2] = system: skeletal muscle of the rat hindlimb; settings: physiologic doses of insulin (3 mU/min/kg clamp); cited from earlier work
# [3] = infused with sub-maximal physiologic dose of insulin, vs insulin alone, FIG. 5b
# [4] = insulin 3 mU/min/kg, anesthetized rat, before vs after, FIG. 7c
molecule,measurement,setting,value
"NC(=O)c1ncn([C@@H]2O[C@H](CO)[C@@H](O)[C@H]2O)c1N [AICAR, 5-aminoimidazole-4-carboxamide-1-β-D-ribofuranoside]",insulin-mediated hindleg glucose uptake,"anaesthetised rats; infused with insulin, vs insulin alone, P<0.05, FIG. 6b",markedly enhanced
same,capillary recruitment as indicated by CEU (capillary blood volume),"[1]; infused alone, without insulin, FIG. 6a",recruited capillary flow on its own
TNFα,effect on insulin-mediated capillary recruitment,anaesthetised rats; rats treated with the cytokine in vivo,completely block
"CCCOc1ccccc1-c1nc(=O)c2[nH]nnc2[nH]1 [Zaprinast, 1,4-dihydro-5-(2-propoxyphenyl)-7H-1,2,3-triazolo(4,5-d)pyrimidin-7-one]",insulin-mediated capillary recruitment (hindleg 1-MX metabolism),"anaesthetised rats; infused with sub-maximal physiologic dose of insulin, vs insulin alone, FIG. 5a",significantly (P<0.05) enhanced
same,insulin-mediated glucose appearance (Ra),anaesthetised rats; [3],significantly (P<0.05) enhanced
same,insulin-mediated glucose disposal (Rd),anaesthetised rats; [3],significantly (P<0.05) enhanced
insulin: hormone infused in euglycemic clamp,"capillary blood volume (microbubble videointensity, CEU)","[1]; euglycemic insulin clamp 3 mU/min/kg, 120 min, vs baseline/saline, FIG. 1a",marked increases
same,"plateau videointensity (A), microvascular volume",[1]; [4],clearly higher
same,rate of microvascular filling (β),[1]; [4],no change
same,increase in capillary blood volume,[2],2-3 fold
COC(=O)[C@@H](N)CCCNC(=N)N[N+](=O)[O-] [L-NAME],insulin-mediated increase in femoral blood flow (FBF),"anaesthetised rats; euglycemic clamp 10 mU/min/kg, 2 h, n=5",blocked the increase in FBF
same,mean arterial blood pressure,"anaesthetised rats; euglycemic clamp 10 mU/min/kg, 2 h, n=5, raised from 100±4",125±5 mmHg
